For this assay, the system named is non small cell lung cancer (NSCLC). Nature of the assay: clinical study in non small cell lung cancer: survival with statins in addition to TTFields. The format is in vivo, human. The conditions noted are these: statin plus Docetaxel plus TTFields compared to the same statin plus Docetaxel; FIGS. 5-7. An excerpt:
In some aspects, the materials and methods described in Leal et al. “Tumor Treating Fields therapy with standard systemic therapy versus standard systemic therapy alone in metastatic non-small-cell lung cancer following progression on or after platinum-based therapy (LUNAR): a randomised, open-label, pivotal phase 3 study” Lancet Oncol. 2023 September; 24(9):1002-1017 can be used, such methods and materials are hereby incorporated by reference in its entirety herein. The disclosed experiments were based on a clinical trial in which subjects received Docetaxel or a combination of Docetaxel and TTFields. The patients also received statins during the clinical trial. The statins were not part of the clinical trial, however, the patients were previously on statins due to the chronic condition and continued to receive statins.

Molecules are shown by their SMILES.

As for `CC(C)c1c(C(=O)Nc2ccccc2)c(-c2ccccc2)c(-c2ccc(F)cc2)n1CC[C@@H](O)C[C@@H](O)CC(=O)O` [Atorvastatin, atorvastatin], the “median survival of patients” value was “increase in median survival”. As to `CC(C)c1nc(N(C)S(C)(=O)=O)nc(-c2ccc(F)cc2)c1/C=C/[C@@H](O)C[C@@H](O)CC(=O)O` [Rosuvastatin, rosuvastatin], the “median survival of patients” value is recorded as “increase in median survival”.
